# Results from ChEMBL document CHEMBL5360537, “From lead to clinic: A review of the structural design of P2X7R antagonists” (Eur J Med Chem, 2023).
# Legend:
# [1] = target: T1, P2X purinoceptor 7 (Homo sapiens, UniProt Q99572); assay: Antagonist activity at human P2X7 receptor expressed in HEK293 by fluorescence plate reader analysis; format: cell-based
# T1 sequence (Q99572 whole entry): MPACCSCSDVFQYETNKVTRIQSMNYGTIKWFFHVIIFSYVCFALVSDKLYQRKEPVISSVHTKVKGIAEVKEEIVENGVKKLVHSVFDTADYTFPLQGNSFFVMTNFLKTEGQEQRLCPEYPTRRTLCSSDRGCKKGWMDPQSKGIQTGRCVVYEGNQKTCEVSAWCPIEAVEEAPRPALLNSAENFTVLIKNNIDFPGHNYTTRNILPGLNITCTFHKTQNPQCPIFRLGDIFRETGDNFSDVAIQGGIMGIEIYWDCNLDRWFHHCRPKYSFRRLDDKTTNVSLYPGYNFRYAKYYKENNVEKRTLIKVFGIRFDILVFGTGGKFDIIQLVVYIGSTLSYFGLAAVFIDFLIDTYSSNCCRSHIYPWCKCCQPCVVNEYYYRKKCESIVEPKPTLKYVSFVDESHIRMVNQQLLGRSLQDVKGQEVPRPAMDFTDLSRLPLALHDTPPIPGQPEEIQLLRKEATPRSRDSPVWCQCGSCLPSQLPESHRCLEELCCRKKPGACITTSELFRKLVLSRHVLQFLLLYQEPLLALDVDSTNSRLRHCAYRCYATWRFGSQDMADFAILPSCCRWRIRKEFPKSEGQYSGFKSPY
# [2] = target: T1, P2X purinoceptor 7; assay: Inhibition of human P2X7 receptor transfected in HEK293 cells by calcium influx assay; format: cell-based
# [3] = target: T1, P2X purinoceptor 7; assay: Antagonist activity at human P2X7 receptor
# [4] = target: T1, P2X purinoceptor 7; assay: Antagonist activity at human P2X7 receptor by calcium flux assay
# [5] = target: T2, P2X purinoceptor 7 (Rattus norvegicus, UniProt Q64663); assay: Antagonist activity at rat P2X7 receptor by calcium flux assay
# T2 sequence (Q64663 whole entry): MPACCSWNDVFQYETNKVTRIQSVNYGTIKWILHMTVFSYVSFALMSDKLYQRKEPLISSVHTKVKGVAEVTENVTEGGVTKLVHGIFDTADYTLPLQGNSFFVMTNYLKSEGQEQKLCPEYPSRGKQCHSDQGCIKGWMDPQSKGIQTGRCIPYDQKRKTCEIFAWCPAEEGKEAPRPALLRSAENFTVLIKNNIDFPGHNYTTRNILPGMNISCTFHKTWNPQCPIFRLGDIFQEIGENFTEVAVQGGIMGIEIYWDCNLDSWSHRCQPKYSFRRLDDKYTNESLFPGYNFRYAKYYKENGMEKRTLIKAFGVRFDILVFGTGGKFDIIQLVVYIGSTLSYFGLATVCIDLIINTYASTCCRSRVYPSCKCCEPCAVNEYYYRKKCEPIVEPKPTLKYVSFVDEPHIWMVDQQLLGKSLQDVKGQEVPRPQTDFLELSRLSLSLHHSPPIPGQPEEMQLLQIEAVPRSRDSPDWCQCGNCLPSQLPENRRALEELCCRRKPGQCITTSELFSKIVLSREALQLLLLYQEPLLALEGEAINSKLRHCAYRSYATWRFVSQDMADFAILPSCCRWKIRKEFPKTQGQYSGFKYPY
# [6] = target: T3, P2X purinoceptor 7 (Mus musculus, UniProt Q9Z1M0); assay: Antagonist activity at mouse P2X7 receptor by calcium flux assay
# T3 sequence (Q9Z1M0 whole entry): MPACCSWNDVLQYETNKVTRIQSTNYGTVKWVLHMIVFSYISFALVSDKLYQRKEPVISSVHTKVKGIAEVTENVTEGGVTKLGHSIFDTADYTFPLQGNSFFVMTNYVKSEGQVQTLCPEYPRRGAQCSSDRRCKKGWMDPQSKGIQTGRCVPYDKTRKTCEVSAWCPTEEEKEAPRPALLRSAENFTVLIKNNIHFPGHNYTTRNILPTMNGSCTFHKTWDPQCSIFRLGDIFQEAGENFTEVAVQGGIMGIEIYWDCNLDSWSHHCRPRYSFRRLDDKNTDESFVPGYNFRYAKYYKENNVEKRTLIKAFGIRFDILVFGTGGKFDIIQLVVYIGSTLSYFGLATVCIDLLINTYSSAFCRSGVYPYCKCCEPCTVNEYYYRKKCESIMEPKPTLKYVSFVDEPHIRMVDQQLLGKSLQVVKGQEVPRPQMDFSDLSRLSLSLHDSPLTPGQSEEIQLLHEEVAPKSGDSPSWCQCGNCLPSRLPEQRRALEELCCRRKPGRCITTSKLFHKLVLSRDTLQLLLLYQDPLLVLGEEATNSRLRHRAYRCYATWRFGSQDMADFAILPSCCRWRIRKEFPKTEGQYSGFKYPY
# [7] = target: T4, P2X purinoceptor 7 (Mus musculus) (UniProt Q9Z1M0); assay: Antagonist activity at P2X7 receptor in mouse Peritoneal macrophage cells assessed as ATP induced dye uptake at 10 uM relative to control; format: cell-based
# T4 sequence (whole entry): T3 sequence (Q9Z1M0 whole entry)
# [8] = target: T1, P2X purinoceptor 7; assay: Antagonist activity at human P2X7 receptor expressed in 1321N1 cells by FLIPR assay; format: cell-based
# [9] = target: T1, P2X purinoceptor 7; assay: Inhibition of P2X7 (unknown origin) assessed as reduction in IL-1 beta release
# [10] = target: T1, P2X purinoceptor 7; assay: Inhibition of P2X7 in human THP-1cells assessed as reduction in YO-PRO-1 iodide dye uptake measured after 24 hrs by fluorescence based assay; format: cell-based
# [11] = target: T1, P2X purinoceptor 7; assay: Antagonist activity at P2X7 receptor in human THP-1 cells assessed as reduction in ATP induced IL-1 beta release; format: cell-based
# [12] = target: T3, P2X purinoceptor 7; assay: Antagonist activity at P2X7 receptor in mouse Peritoneal macrophage cells assessed as reduction in ATP induced IL-1 beta release; format: cell-based
compound,measurement,setting,value
COCCn1cc(C(=O)NCc2nc3ccccc3s2)c2c(Cl)cccc21,IC50,[1],> 1 µM
CS(=O)(=O)C1CC[C@@](F)(C(=O)NCc2ccc(Cl)cc2Cl)c2cccnc21 (some centres not stated),IC50,[2],< 0.05 µM
Cc1nc2cc(C)c(Nc3nc(=O)c4[nH]cnc4n3Cc3ccc(F)cc3)cc2s1,IC50,[3],0.011 µM
O=c1snc(Cc2c(F)cccc2Cl)n1CC1CCC(F)(F)CC1,IC50,[4],< 0.2 µM
same,IC50,[5],< 0.2 µM
same,IC50,[6],< 0.2 µM
CC1=C(C(c2ccc(F)cc2)n2cc(COCc3ccco3)nn2)C(=O)c2ccccc2C1=O (configuration not stated),inhibition,[7],< 60%
Cc1nc2cc(C)c(Nc3nc(=O)cc4n3C(c3ccc(F)cc3)CC4)cc2s1 (configuration not stated),IC50,[3],< 0.01 µM
Cc1ccc(-c2ncco2)cc1Nc1nc(=O)cnn1Cc1cc(F)c(F)c(F)c1,IC50,[8],0.0024 µM
O=C(NCc1ccc(F)cc1Cl)[C@]1(F)CC[C@H](OCCO)c2ncccc21,IC50,[2],< 0.05 µM
CC1CCCC(O)(CNC(=O)c2cn(C3COC3)c3cccc(Cl)c23)C1 (configuration not stated),IC50,[1],< 0.01 µM
Cc1c(Cl)cccc1Nc1nc(=O)cc2n1C(c1ccccc1)CC2 (configuration not stated),IC50,[3],< 0.01 µM
Cc1ccc(CO)cc1Nc1nc(=O)ccn1Cc1cc(F)c(F)c(F)c1,IC50,[8],0.004 µM
CCc1cccc(Nc2nc(=O)c3[nH]cnc3n2Cc2ccc(F)cc2)c1CC,IC50,[3],< 0.01 µM
C[C@@H](CO)n1ccc2c(NC(=O)CC34CC5CC(CC(C5)C3)C4)cccc2c1=O,IC50,[9],0.00015 µM
same,IC50,[10],0.107 µM
O=c1onc(Cc2ccc(Cl)cc2Cl)n1CC1CCC(F)(F)CC1,IC50,[4],< 0.2 µM
same,IC50,[5],< 0.2 µM
same,IC50,[6],0.2 µM
O=C1CCC(C(=O)NCc2cccc(C(F)(F)F)c2Cl)c2cccnc21 (configuration not stated),IC50,[2],< 0.05 µM
O=c1onc(Cc2c(F)cccc2Cl)n1CC1CCC(C(F)(F)F)CC1 (configuration not stated),IC50,[4],< 0.2 µM
same,IC50,[5],< 0.2 µM
same,IC50,[6],< 0.2 µM
COCCn1cc(C(=O)NCc2ccco2)c2c(Cl)cccc21,IC50,[1],> 1 µM
COc1ccc(Nc2nc(=O)c3onc(C)c3n2Cc2ccc(F)c(F)c2)c(C)c1,IC50,[3],< 0.01 µM
COc1ccc(Cc2noc(=O)n2CC2CCC(F)(F)CC2)cc1,IC50,[4],1 µM
same,IC50,[5],1 µM
same,IC50,[6],1 µM
O=c1onc(Cc2c(F)cccc2Cl)n1CC1CCC(F)(F)CC1,IC50,[4],< 0.2 µM
same,IC50,[5],< 0.2 µM
same,IC50,[6],< 0.2 µM
CC1=C(C(c2ccc(C)cc2)n2cc(COCc3ccco3)nn2)C(=O)c2ccccc2C1=O (configuration not stated),inhibition,[7],< 60%
O=c1onc(Cc2c(F)cccc2Cl)n1CC1CC2CCC1C2 (configuration not stated),IC50,[4],< 0.2 µM
same,IC50,[5],< 0.2 µM
same,IC50,[6],0.2 µM
CC1=C(C(c2ccc([N+](=O)[O-])cc2)n2cc(COCc3ccco3)nn2)C(=O)c2ccccc2C1=O (configuration not stated),IC50,[11],183 µM
same,IC50,[12],187 µM
same,inhibition,[7]; filed as antagonist,60%
COCCn1cc(C(=O)NCc2ccc3c(c2)OCO3)c2c(Cl)cccc21,IC50,[1],> 1 µM
Cc1ccc(Cn2c(Nc3cc4sc(C)nc4cc3C)nc(=O)c3[nH]cnc32)cc1,IC50,[3],0.5 µM
O=C1CO[C@]2(CC[C@@](F)(C(=O)NCc3ccc(Cl)cc3Cl)c3cccnc32)CN1,IC50,[2],< 0.05 µM
COCCn1cc(C(=O)NCc2ccc(C(F)(F)F)cc2)c2c(Cl)cccc21,IC50,[1],> 1 µM
Cc1ccc(N2CCCC2=O)cc1Nc1nc(=O)cnn1Cc1cc(F)c(F)c(F)c1,IC50,[8],0.0057 µM
COCCn1cc(C(=O)NC[C@@]2(O)CCCC(F)(F)C2)c2c(Cl)cccc21,IC50,[1],< 0.01 µM
COc1ccc(Nc2nc(=O)c3nn(C)cc3n2Cc2cc(F)c(F)c(F)c2)c(C)c1,IC50,[3],< 0.01 µM
C[C@H](CO)n1ccc2c(NC(=O)CC34CC5CC(CC(C5)C3)C4)cccc2c1=O,IC50,[9],0.001 µM
same,IC50,[10],0.52 µM
